The subject of test [1] is pancreatic cancer cells PANC-1 (ATCC CRL-1469). Particulars: cited from earlier work.
Test [2] relates to normal pancreatic ductal epithelial cells (ATCC CRL-4038). Description: SRB (Sulforhodamine B) assay in normal pancreatic ductal epithelial cells. The format is cell-based. The following applies: Epithelial cell; 2D-culture, SRB, average of 3 runs; read-out: IC50 (NPC). The method, then:
(§1) FIGS. 1A-1B show the IC50 curves of the twelve investigational β-lactams in pancreatic cancer cells PANC-1 (ATCC CRL-1469) and normal pancreatic ductal epithelial cells (ATCC CRL-4038). The GraphPad Prism software was used to process the results. The IC50 values were determined by SRB (Sulforhodamine B) assay following standard procedure. PANC-1 cells were plated in 96 well plates and treated with 1, 10, 100, 1000 and 10,000 nM of each of the drugs in triplicate for 72 hrs. Cells were fixed, washed and stained with SRB dye, the stained cells were washed, and the dye solubilized. It was read using a plate reader at 565 nm. The IC50 values were calculated assuming that the 10 μM sample has reached saturation. Following similar way, IC50 values were determined for normal pancreatic ductal epithelial cells.
(§2) As mentioned earlier, PANC-1 is referred to generically as the “gold standard of pancreatic cancers” representing as it does almost total resistance to GEM, the first line treatment currently used in clinical situations. Pancreatic cancer cells PANC-1 (ATCC CRL-1469) and normal pancreatic ductal epithelial cells (ATCC CRL-4038) were used in this study. The GraphPad Prism software was used to process the results. […] Cells were fixed, washed and stained with SRB dye, the stained cells were washed, and the dye solubilized. It was read using a plate reader at 565 nm. The IC50 values were calculated assuming that the 10 μM sample has reached saturation. Following similar way, IC50 values were determined for normal pancreatic ductal epithelial cells.

Test [3] concerns pancreatic cancer cells PANC-1 (ATCC CRL-1469). Description: SRB (Sulforhodamine B) assay in PANC-1 cells. The format is cell-based. The following applies: Homo sapiens, PANC-1; 2D-culture, SRB, 72 hrs, average of 3 runs; read-out: IC50 (PANC-1). The procedure: as §1, §2
The subject of another test is CaPan-2. Description: Cytotoxicity IC50 in CaPan-2 cells. Type of test: cell-based. The following applies: Homo sapiens; CaPan-2 cell line; read-out: IC50 (mean ± standard error). An excerpt:
(§3) B. Cytotoxicity Studies: Determination of IC50 Values (Single Run) in Capan-2, HPAC. HPAF-II, and HS766T Cell Lines
(§4) Capan-2, HPAC. HPAF-H, and HS766T. The compounds A, D, E, G, and H were chosen randomly, out of twelve β-laclam molecules, to carry out this evaluation.

The subject of a further test is PANC-1 cells. Description: Flow cytometric cell cycle analysis. Type of test: cell-based, human. The following applies: tested for 24, 48 and 72 hrs. The procedure:
The noise was cleared. […] After 72 hrs all the cells (including floaters) were collected, the adhered cells were trypsinized and collected as well. The cells were then centrifuged in a 50 mL centrifuge tube. The pellet was washed with PBS and reconstituted in 500 μL PBS. The cells were then fixed in ice cold ethanol by adding the ethanol dropwise while gently vortexing the cells. Stored at 4° C. for overnight. The cells were then centrifuged, and the pellet reconstituted in Guava cell cycle reagent and analyzed in a Guava flow cytometer. A similar experiment was conducted with normal pancreatic ductal epithelial cells (NPC) and the drug treatment was done according to the IC50 values observed in the 2D assay conducted on them (Table E). Please note that 2N represents G0/G1 and 4N for G2 phases.
After 72 hrs all the cells (including floaters) were collected, the adhered cells were trypsinized and collected as well. The cells were then centrifuged in a 50 mL centrifuge tube. The pellet was washed with PBS and reconstituted in 500 μL PBS. The cells were then fixed in ice cold ethanol by adding the ethanol dropwise while gently vortexing the cells. […] The cells were then centrifuged, and the pellet reconstituted in Guava cell cycle reagent and analyzed in a Guava flowcytometer. […] First set of data with PANC-1 cells were analyzed by using FlowJo software, the noise was cleared (FIG. 3). […]
A general note: Flow cytometry measures light scatter and fluorescence of single cells or particles in a stream.

The test system of another test is HPAF-II. Description: Cytotoxicity IC50 in HPAF-II cells. Type of test: cell-based. The following applies: Homo sapiens; HPAF-II cell line; read-out: IC50 (mean ± standard error).
Source text: as §3, §4

The subject of another test is HPAC. Kind of test: Cytotoxicity IC50 in HPAC cells. The following applies: Homo sapiens; HPAC cell line; read-out: IC50 (mean ± standard error). Type of test: cell-based.
Source text: as §3, §4

The test system of another test is PANC-1 tumorspheres. Kind of test: 3D-tumorsphere formation assay. The format is cell-based, human. The method, then: Number of tumorspheres formed can be used to distinguish the efficacy of different anticancer drugs in a more physically acceptable method than 2D culture. Based on selectivity and toxicity towards PANC-1 cells in comparison to normal pancreatic ductal epithelial cells (Table D), six compounds (A, B, C, E, F, and G) were chosen for the 3D-tumorsphere formation assay. The assay was carried out by following the protocol developed by Johnson et al., (2013). PANC-1 cells (5000) were plated as single cells in Corning ultra-low attachment 24 well plates in 0.5 ml DMEM+10% FBS. The cells were grown in a humidified atmosphere of 5% CO2 for 168 hrs. 0.1 ml Media was added on 72nd and 144 hrs. The β-lactams were dissolved in DMSO and maintained at −20° C. On the day of assay, on the addition of media, the drugs were freshly diluted in media. The final concentrations of drugs were 0, 1 nM, 10 nM, 100 nM, 1 uM, 10 μM. After 144 hours the total number tumorspheres that were larger than 100 micrometers were counted in a field of 1 mm×1 mm at 10× magnification in a bright field microscope. The data was plotted and the IC50 value was calculated.
3D-tumorsphere formation assay is considered to be a fast and economical intermediary step between in vitro and in vivo biological evaluations. A tumorsphere is a solid, spherical formation developed from the proliferation of a single cancer stem/progenitor cell in 3D culture. These cells are easily distinguishable from single or aggregated as they appear to become fused together and individual cells cannot be appearing to become fused together and individual cells cannot be identified. The size can vary from less than 50 micrometers to 250 micrometers. The number of tumorspheres formed can be used to characterize the cancer stem cell population within different in vitro cultured cancer cell lines. The number of tumorspheres formed can also be used to distinguish the efficacy of different anticancer drugs in a more physically acceptable method than 2D culture. Based on selectivity and toxicity towards PANC-1 cells in comparison to normal pancreatic ductal epithelial cells (Table D), six compounds (A, B, C, E, F, and G) were chosen for the 3D-tumorsphere formation assay. The assay was carried out by following the protocol developed by Johnson et al., (2013). […] The below steps were followed to accomplish the assay. • 5000 PANC-1 cells were plated as single cells in Corning ultra-low attachment 24 well plates in 0.5 ml DMEM+10% FBS. • Cells were grown in a humidified atmosphere of 5% CO2 for 168 hrs. 0.1 ml Media was added on 72nd and 144 hrs. • Drugs were dissolved in DMSO and maintained at −20° C. On the day of assay, on the addition of media, the drugs were freshly diluted in media. • The final concentrations of drugs were 0, 1 nM, 10 nM, 100 nM, 1 μM, 10 μM. • After 144 hrs the total number tunorspheres that were larger than 100 micrometers were counted in a field of 1 mm×1 mm at 10× magnification in a bright field microscope. The data was plotted and the IC50 value was calculated.

Another test concerns HS 766T. Kind of test: Cytotoxicity IC50 in HS 766T cells. Particulars: Homo sapiens, Hs766T; HS 766T cell line; read-out: IC50 (mean ± standard error). Type of test: cell-based.
Source text: as §3, §4

Where two headings read alike, the source gives them in different places.

For orientation: IC50 means the concentration that gives 50% inhibition.

For `CS(=O)(=O)O[C@H]1C(=O)N(c2cc3c4ccccc4ccc3c3ccccc23)C1c1ccccn1` (some centres unmarked) [TX-262], the IC50 in test [1] (TX-262, from Banik et al., WO 2012/103456, read-out: IC50 (PANC-1)) was 430 nM; in test [1] (TX-262, read-out: PANC-1 cell lines IC50) it was 430 nM.
Turning to `CS(=O)(=O)O[C@@H]1C(=O)N(c2cc3c4ccccc4ccc3c3ccccc23)[C@H]1c1ccc(F)cn1` (racemic) [A, (±)-Trans-N-(chrysen-6-yl)-2-(5-fluoropyridin-2-yl)-4-oxoazetidin-3-yl methanesulfonate], the IC50 in test [2] is 449 nM; in test [3], 21.2 nM; with CaPan-2 it was > 10000 nM; in the test with HPAF-II, 980 ± 380 nM; with HPAC, > 10000 nM; in the test on PANC-1 tumorspheres (Homo sapiens, tumorspheres larger than 100 micrometers counted after 144 hrs) it was 18.1 nM. Also, in the test with HS 766T, the IC50 amounted to 240 ± 380 nM. In the test with PANC-1 cells, the “time of maximum cell cycle blockage” value worked out at 72 h. For the same molecule, in the test on PANC-1 tumorspheres, the “activity in 3D-tumorsphere formation assay compared with 2D-culture” value is “higher activity in 3D-tumorphere formation assay than 2D-culture”.
